Results from ChEMBL document CHEMBL3044780, “Simple and Rapid Screening Method for Photosystem II Inhibitory Herbicides Using Photoautotrophically Cultured Plant Cells with Chlorophyll Fluorescence Monitoring” (Biosci Biotechnol Biochem, 1993).

What was measured:
[1] = Lipophilicity, log P of the compound; type: physicochemical; details: octanol/water
[2] = test system: Vigna radiata var. radiata; experiment: Herbicidal activity against Vigna radiata var. radiata assessed per 100 m'2 after 10 days by greenhouse pot test; type: functional

With `CN(C)C(=O)Nc1ccc(C#N)cc1` the logP [1] was 0.97 and the pLD50 [2] was 0.63.

`CN(C)C(=O)Nc1ccc(I)cc1` gave a logP [1] of 2.36 and a pLD50 [2] of 1.75.

In the case of `CN(C)C(=O)Nc1ccc(Br)cc1`, the logP [1] is reported as 2.07 and the pLD50 [2] is reported as 1.86.

Work on `CN(C)C(=O)Nc1ccc(O)cc1` yielded a logP [1] of 0.37 and a pLD50 [2] of under 0.4.

In the case of `CN(C)C(=O)Nc1cccc(F)c1`, the logP [1] is reported as 1.37 and the pLD50 [2] is reported as 1.76.

For `CN(C)C(=O)Nc1cccc(Cl)c1`, the logP [1] was 2.33 and the pLD50 [2] was 2.16.

For `COc1cccc(NC(=O)N(C)C)c1`, the logP [1] was 1.22 and the pLD50 [2] was 1.15.

Work on `CN(C)C(=O)Nc1cccc([N+](=O)[O-])c1` yielded a logP [1] of 1.33 and a pLD50 [2] of under 0.4.

Work on `CN(C)C(=O)Nc1cccc(C#N)c1` yielded a logP [1] of 0.98 and a pLD50 [2] of under 0.4.

For `CN(C)C(=O)Nc1cccc(O)c1`, the pLD50 [2] was under 0.4.

With `CN(C)C(=O)Nc1ccc(F)cc1` the logP [1] was 1.13 and the pLD50 [2] was 1.67.

For `Cc1ccc(NC(=O)N(C)C)cc1`, the logP [1] was 1.41 and the pLD50 [2] was 1.21.

Compound `COc1ccc(NC(=O)N(C)C)cc1` has a logP [1] of 1.02 and a pLD50 [2] of 1.61.

`CN(C)C(=O)Nc1ccc(C(F)(F)F)cc1` showed a logP [1] of 2.31 and a pLD50 [2] of 1.45.

`CN(C)C(=O)Nc1ccc([N+](=O)[O-])cc1` gave a logP [1] of 1.43 and a pLD50 [2] of under 0.4.

`Cc1cccc(NC(=O)N(C)C)c1` gave a logP [1] of 1.46.

Compound `CN(C)C(=O)Nc1ccc(Cl)c(Cl)c1` [DCMU] has a pLD50 [2] of 2.75.

In the case of `CN(C)C(=O)Nc1ccccc1` [FENURON], the pLD50 [2] is reported as 1.54.

`CN(C)C(=O)Nc1cccc(C(F)(F)F)c1` [FLUOMETURON] gave a logP [1] of 2.2 and a pLD50 [2] of 1.3.

For `CC(C)c1ccc(NC(=O)N(C)C)cc1` [ISOPROTURON], the logP [1] was 2.87 and the pLD50 [2] was 1.92.

Compound `CN(C)C(=O)Nc1ccc(Cl)cc1` [MONURON] has a logP [1] of 1.99 and a pLD50 [2] of 2.01.
